Test results reported in ChEMBL document CHEMBL4428109, “Structure-activity relationship studies of non-carboxylic acid peroxisome proliferator-activated receptor α/δ (PPARα/δ) dual agonists” (Bioorg Med Chem, 2016).
The source made the active and inactive calls. The calls are words filed in the database; no cut-off is given here.

How the values were obtained:
[1] = target: T1, Peroxisome proliferator-activated receptor alpha (Homo sapiens, UniProt Q07869); assay: Agonist activity at N-terminal Gal4 fused human PPARalpha LBD transfected in HEK293 cells after 24 hrs by luciferase reporter gene assay; format: cell-based
T1 sequence (Q07869 whole entry): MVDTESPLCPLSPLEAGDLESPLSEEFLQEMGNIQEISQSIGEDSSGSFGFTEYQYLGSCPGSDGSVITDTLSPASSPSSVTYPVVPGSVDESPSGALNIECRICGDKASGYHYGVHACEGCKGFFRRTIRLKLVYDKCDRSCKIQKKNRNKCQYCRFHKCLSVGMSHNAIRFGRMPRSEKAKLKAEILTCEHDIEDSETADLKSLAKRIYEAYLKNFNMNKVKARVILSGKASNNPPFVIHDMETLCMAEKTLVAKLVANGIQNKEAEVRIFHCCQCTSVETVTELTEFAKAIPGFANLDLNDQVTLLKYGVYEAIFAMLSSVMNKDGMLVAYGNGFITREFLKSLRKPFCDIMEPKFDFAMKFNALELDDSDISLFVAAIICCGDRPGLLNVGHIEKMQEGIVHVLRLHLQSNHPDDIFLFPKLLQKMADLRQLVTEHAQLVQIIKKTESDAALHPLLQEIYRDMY

[2] = target: T2, Peroxisome proliferator-activated receptor gamma (Homo sapiens) (UniProt P37231); assay: Agonist activity at N-terminal Gal4 fused human PPARgamma LBD transfected in HEK293 cells at < 10 uM after 24 hrs by luciferase reporter gene assay; format: cell-based
T2 sequence (whole entry): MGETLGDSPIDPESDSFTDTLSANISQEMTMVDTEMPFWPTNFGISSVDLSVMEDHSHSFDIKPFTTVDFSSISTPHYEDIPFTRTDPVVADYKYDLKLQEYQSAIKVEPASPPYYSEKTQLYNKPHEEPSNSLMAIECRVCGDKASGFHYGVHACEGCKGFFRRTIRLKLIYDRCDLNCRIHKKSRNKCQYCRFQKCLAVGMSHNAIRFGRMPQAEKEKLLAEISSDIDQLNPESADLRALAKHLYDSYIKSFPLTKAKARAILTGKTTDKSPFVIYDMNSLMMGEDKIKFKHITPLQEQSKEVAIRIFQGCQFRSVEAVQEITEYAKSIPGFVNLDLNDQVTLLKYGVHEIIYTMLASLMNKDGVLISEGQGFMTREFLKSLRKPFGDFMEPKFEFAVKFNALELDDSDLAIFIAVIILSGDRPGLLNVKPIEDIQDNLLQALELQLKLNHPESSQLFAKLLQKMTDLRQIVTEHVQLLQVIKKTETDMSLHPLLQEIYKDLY

[3] = target: T3, Peroxisome proliferator-activated receptor alpha (Homo sapiens) (UniProt Q07869); assay: Agonist activity at N-terminal Gal4 fused human PPARalpha LBD transfected in HEK293 cells after 24 hrs by luciferase reporter gene assay relative to GW7647; format: cell-based
T3 sequence (whole entry): T1 sequence (Q07869 whole entry)

[4] = target: T4, Retinoic acid receptor RXR-beta (Homo sapiens) (UniProt P28702); assay: Agonist activity at RXRbeta (unknown origin) at < 20 uM
T4 sequence (whole entry): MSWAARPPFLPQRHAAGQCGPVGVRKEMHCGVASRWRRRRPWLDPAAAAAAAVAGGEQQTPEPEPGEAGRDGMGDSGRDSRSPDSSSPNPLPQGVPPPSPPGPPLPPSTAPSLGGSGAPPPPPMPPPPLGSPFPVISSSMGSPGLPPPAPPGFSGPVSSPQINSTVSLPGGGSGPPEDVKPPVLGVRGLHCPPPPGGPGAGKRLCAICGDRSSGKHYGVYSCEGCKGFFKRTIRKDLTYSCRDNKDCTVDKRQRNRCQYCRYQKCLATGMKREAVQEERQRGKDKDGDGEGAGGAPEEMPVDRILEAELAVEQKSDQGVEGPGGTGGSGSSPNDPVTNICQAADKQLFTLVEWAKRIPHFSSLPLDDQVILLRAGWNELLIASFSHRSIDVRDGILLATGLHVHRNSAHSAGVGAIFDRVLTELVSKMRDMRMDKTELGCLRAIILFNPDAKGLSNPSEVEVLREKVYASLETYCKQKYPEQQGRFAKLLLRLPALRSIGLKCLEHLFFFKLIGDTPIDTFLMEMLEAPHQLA

EC50 [1]: 33 nM
Activity [2]: inactive
Emax [3]: 16 to 35%
Activity [4]: inactive
Compound: CC(=O)NC(C)c1nc(-c2ccc(Oc3ccc(OCc4ccccc4)cc3)cc2)no1 (centres undefined)
